Laboratory results published in patent publication US20230257367A1, “NOVEL THYROID HORMONE BETA RECEPTOR AGONIST” (Chengdu Kanghong Pharmaceutical Co., Ltd., priority 2020, published 2023).

Target: T1, TRα-LBD/RXRα (Homo sapiens, UniProt P10827)
T1 construct: TRα-LBD (Invitrogen, PV4762), or TRβ-LBD (Invitrogen, PV4764) with a GST tag were used; purchased Invitrogen (TRα-LBD); Pharmaron (RXRα) PV4762
Assay: In vitro binding experiment (TR-FRET SRC2-2 co-activator peptide recruitment), TRα
Assay type: biochemical
Conditions: 4 h incubation at room temperature

T1 sequence (P19793 whole entry partner, other chains not shown, the tested form may be a part): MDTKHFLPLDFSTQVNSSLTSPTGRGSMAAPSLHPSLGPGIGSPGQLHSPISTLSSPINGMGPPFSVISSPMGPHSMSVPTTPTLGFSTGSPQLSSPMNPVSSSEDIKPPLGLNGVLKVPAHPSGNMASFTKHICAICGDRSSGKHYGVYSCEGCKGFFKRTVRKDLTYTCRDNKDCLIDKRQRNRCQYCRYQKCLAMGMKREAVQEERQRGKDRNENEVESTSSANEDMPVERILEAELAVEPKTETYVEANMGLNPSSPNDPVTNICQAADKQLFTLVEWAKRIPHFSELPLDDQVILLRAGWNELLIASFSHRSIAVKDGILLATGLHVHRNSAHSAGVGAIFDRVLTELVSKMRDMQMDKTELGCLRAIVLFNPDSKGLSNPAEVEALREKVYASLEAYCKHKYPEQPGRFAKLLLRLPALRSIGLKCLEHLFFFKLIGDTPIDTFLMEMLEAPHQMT

SMILES | EC50 [µM]
CCC(CC)c1nc(Oc2c(Cl)cc(-n3ncc(=O)[nH]c3=O)cc2Cl)ncc1O [KHE010] | 0.22
CC(C)c1nc(Sc2c(Cl)cc(-n3nc(C#N)c(=O)[nH]c3=O)cc2Cl)ncc1O [KH17] | 0.385
O=c1cnn(-c2cc(Cl)c(Oc3ncc(O)c(CC4CCCCC4)n3)c(Cl)c2)c(=O)[nH]1 [KHE008] | 4.54
N#Cc1nn(-c2cc(Cl)c(Oc3ncc(O)c(Cc4ccccc4)n3)c(Cl)c2)c(=O)[nH]c1=O [KH09] | 1.88
CC(C)c1nc(Oc2c(Cl)cc(-c3noc(=O)[nH]3)cc2Cl)ncc1O [KHE003] | 0.573
N#Cc1nn(-c2cc(Cl)c(Oc3ncc(O)c(C4CC4)n3)c(Cl)c2)c(=O)[nH]c1=O [KHE017] | 0.737
O=c1cnn(-c2cc(Cl)c(Oc3ncc(O)c(Cc4ccc(F)cc4)n3)c(Cl)c2)c(=O)[nH]1 [KHE002] | 0.272
N#Cc1nn(-c2cc(Cl)c(Oc3ncc(O)c(C4CC(F)(F)C4)n3)c(Cl)c2)c(=O)[nH]c1=O [KHE019] | 2.38
CC(C)c1nc(Oc2c(Cl)cc(NCC(=O)O)cc2Cl)ncc1O [KH04] | 0.133

Target: T2, TRβ-LBD/RXRα (Homo sapiens, UniProt P10828)
T2 construct: TRβ-LBD (Invitrogen, PV4764) with a GST tag were used; purchased Invitrogen (TRβ-LBD); Pharmaron (RXRα) PV4764
T2 sequence (P19793 whole entry partner, other chains not shown, the tested form may be a part): as above
Assay: In vitro binding experiment (TR-FRET SRC2-2 co-activator peptide recruitment), TRβ
Assay type: biochemical
Conditions: 4 h incubation at room temperature

SMILES | EC50 [µM]
CC(C)c1nc(Oc2c(Cl)cc(NCP(=O)(O)O)cc2Cl)ncc1O [KH02] | 1.06
CCC(CC)c1nc(Oc2c(Cl)cc(-n3ncc(=O)[nH]c3=O)cc2Cl)ncc1O [KHE010] | 0.029
CC(C)c1nc(Sc2c(Cl)cc(-n3nc(C#N)c(=O)[nH]c3=O)cc2Cl)ncc1O [KH17] | 0.021
O=c1cnn(-c2cc(Cl)c(Oc3ncc(O)c(CC4CCCCC4)n3)c(Cl)c2)c(=O)[nH]1 [KHE008] | 0.067
N#Cc1nn(-c2cc(Cl)c(Oc3ncc(O)c(Cc4ccccc4)n3)c(Cl)c2)c(=O)[nH]c1=O [KH09] | 0.066
CC(C)c1nc(Oc2c(Cl)cc(-c3noc(=O)[nH]3)cc2Cl)ncc1O [KHE003] | 0.746
N#Cc1nn(-c2cc(Cl)c(Oc3ncc(O)c(C4CC4)n3)c(Cl)c2)c(=O)[nH]c1=O [KHE017] | 0.077
O=c1cnn(-c2cc(Cl)c(Oc3ncc(O)c(Cc4ccc(F)cc4)n3)c(Cl)c2)c(=O)[nH]1 [KHE002] | 0.003
N#Cc1nn(-c2cc(Cl)c(Oc3ncc(O)c(C4CC(F)(F)C4)n3)c(Cl)c2)c(=O)[nH]c1=O [KHE019] | 0.254
CC(C)c1nc(Oc2c(Cl)cc(NCC(=O)O)cc2Cl)ncc1O [KH04] | 0.113

Target: T3, TRα (Homo sapiens, UniProt P10827)
T3 construct: host or cells: HEK293T
T3 sequence (P10827 1-410 isoform P10827-2): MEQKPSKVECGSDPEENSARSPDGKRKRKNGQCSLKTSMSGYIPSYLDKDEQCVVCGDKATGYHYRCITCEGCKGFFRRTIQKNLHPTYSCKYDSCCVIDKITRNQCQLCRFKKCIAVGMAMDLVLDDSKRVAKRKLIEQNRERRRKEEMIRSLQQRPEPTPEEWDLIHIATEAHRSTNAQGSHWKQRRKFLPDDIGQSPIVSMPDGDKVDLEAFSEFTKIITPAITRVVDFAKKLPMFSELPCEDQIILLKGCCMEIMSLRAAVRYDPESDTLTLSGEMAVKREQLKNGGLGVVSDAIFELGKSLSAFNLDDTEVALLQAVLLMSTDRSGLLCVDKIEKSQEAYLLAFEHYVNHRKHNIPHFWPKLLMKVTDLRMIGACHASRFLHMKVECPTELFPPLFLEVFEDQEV
T3 sequence (P19793 227-458 partner limits assumed): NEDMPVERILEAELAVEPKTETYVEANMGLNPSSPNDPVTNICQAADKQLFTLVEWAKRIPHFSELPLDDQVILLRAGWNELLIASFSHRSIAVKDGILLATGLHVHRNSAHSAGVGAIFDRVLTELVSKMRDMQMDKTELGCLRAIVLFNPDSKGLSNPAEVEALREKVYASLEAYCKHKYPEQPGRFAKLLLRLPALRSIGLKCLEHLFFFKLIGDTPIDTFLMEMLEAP
Assay: In vitro TRα cell transfection experiment (GAL4 luciferase reporter, HEK293T)
Assay type: cell-based
Conditions: not given

SMILES | EC50 [µM]
O=c1cnn(-c2cc(Cl)c(Oc3ncc(O)c(CC4CCCCC4)n3)c(Cl)c2)c(=O)[nH]1 [KHE008] | 0.049
N#Cc1nn(-c2cc(Cl)c(Oc3ncc(O)c(C4CC4)n3)c(Cl)c2)c(=O)[nH]c1=O [KHE017] | 3.31
O=c1cnn(-c2cc(Cl)c(Oc3ncc(O)c(Cc4ccc(F)cc4)n3)c(Cl)c2)c(=O)[nH]1 [KHE002] | 0.039
CC(C)c1nc(Oc2c(Cl)cc(NCC(=O)O)cc2Cl)ncc1O [KH04] | 2.49

Target: T4, TRβ (Homo sapiens, UniProt P10828)
T4 construct: host or cells: HEK293T
T4 sequence (P10828 217-461 limits assumed): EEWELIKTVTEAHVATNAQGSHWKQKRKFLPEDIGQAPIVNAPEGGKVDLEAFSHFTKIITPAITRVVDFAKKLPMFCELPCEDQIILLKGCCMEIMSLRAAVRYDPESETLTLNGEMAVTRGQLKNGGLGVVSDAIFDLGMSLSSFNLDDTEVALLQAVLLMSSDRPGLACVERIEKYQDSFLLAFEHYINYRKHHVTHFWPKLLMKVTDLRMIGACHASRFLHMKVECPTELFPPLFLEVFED
T4 sequence (P19793 227-458 partner limits assumed): T3 sequence (P19793 227-458 partner limits assumed)
Assay: In vitro TRβ cell transfection experiment (GAL4 luciferase reporter, HEK293T)
Assay type: cell-based
Conditions: not given

SMILES | EC50 [µM]
O=c1cnn(-c2cc(Cl)c(Oc3ncc(O)c(CC4CCCCC4)n3)c(Cl)c2)c(=O)[nH]1 [KHE008] | 0.008
N#Cc1nn(-c2cc(Cl)c(Oc3ncc(O)c(C4CC4)n3)c(Cl)c2)c(=O)[nH]c1=O [KHE017] | 0.88
O=c1cnn(-c2cc(Cl)c(Oc3ncc(O)c(Cc4ccc(F)cc4)n3)c(Cl)c2)c(=O)[nH]1 [KHE002] | 0.004
CC(C)c1nc(Oc2c(Cl)cc(NCC(=O)O)cc2Cl)ncc1O [KH04] | 1.28

Test system: not listed separately
Assay: PK experiment of cynomolgus monkeys
Assay type: in vivo
Conditions: cynomolgus monkey, plasma; IV, 1 mg/kg, single dose, male cynomolgus monkeys; read-out: Half-life period (T1/2) (converted)
Text: The purpose of this experiment was to evaluate the pharmacokinetic behavior of the compound to be tested after single intravenous and intragastric administration, and to study the bioavailability after intragastric administration, providing animal experimental data for clinical studies.
Preparation of solutions for intravenous injection and intragastric administration: an appropriate amount of compound to be tested was accurately weighed, and mixed with a suitable solvent (5 vol % DMSO+10 vol % polyethylene glycol−15-hydroxystearate+85 vol % normal saline). After vortex, or ultrasound processing, a clear and transparent solution (the solution for intravenous injection administration), or a uniform suspension was obtained. The solution administrated by intravenous injection needed to be filtered through a 0.22 μm filter membrane
Experimental design: before the first dose the cynomolgus monkeys were divided into 2 groups by body weight with 3 male cynomolgus monkeys in each group, where animals in group 1 were given the compound to be tested (1 mg/kg) by single intravenous injection (IV); and animals in the 2rd group were administrated with the compound to be tested (5 mg/kg) by single intragastric administration (PO). The animals were weighed before administration, and dosages were calculated based on the weights of the animals.
Sample collection: a whole blood sample (about 0.2 mL) was collected at a specified time by venipuncture of an upper limb (or other suitable blood collection sites), and the actual blood collection time was recorded in test records. The acceptable error for one acquisition time point within 1 hour after administration is ±1 minute, and the acceptable error for other time points is ±5% of the theoretical time. All blood samples were immediately transferred to a labeled commercial centrifuge tube containing K2-EDTA. After blood sample collection, the blood sample was centrifuged at 4° C. and 3,200 g for 10 minutes, the supernatant plasma was sucked, quickly put in dry ice, and kept in a refrigerator at −70±10° C. for LC-MS/MS analysis. The collection time of both groups was 0.083 hour, 0.25 hour, 0.5 hour, 1 hour, 2 hours, 4 hours, 8 hours and 24 hours after administration.
Data processing: Area under the curve (AUC(0-t) and AUC(0-∞)), elimination half-life (T½), peak concentration (Cmax), time to reach maximum plasma concentration (Tmax), etc., were calculated by the non-compartment analysis module in Phoenix WinNonlin 7.0.

SMILES | half-life [h]
CC(C)c1cc(Oc2c(Cl)cc(-n3nc(C#N)c(=O)[nH]c3=O)cc2Cl)n[nH]c1=O [MGL3196, reference compound] | 1.45

Same assay, conditions: male, cynomolgus monkey, plasma; PO 5 mg/kg vs IV 1 mg/kg; read-out: Bioavailability (F)

SMILES | bioavailability [%]
CC(C)c1cc(Oc2c(Cl)cc(-n3nc(C#N)c(=O)[nH]c3=O)cc2Cl)n[nH]c1=O [MGL3196, reference compound] | 8.47

Same assay, conditions: male, cynomolgus monkey; IV, 1 mg/kg, single dose, plasma; read-out: Area under the curve AUC(0-t) in the case of administration

SMILES | AUC(0-t) [ng·h/mL]
CC(C)c1cc(Oc2c(Cl)cc(-n3nc(C#N)c(=O)[nH]c3=O)cc2Cl)n[nH]c1=O [MGL3196, reference compound] | 3900

Same assay, conditions: male, cynomolgus monkey; IV, 1 mg/kg, single dose, plasma; read-out: Peak concentration Cmax

SMILES | Cmax [ng/mL]
CC(C)c1cc(Oc2c(Cl)cc(-n3nc(C#N)c(=O)[nH]c3=O)cc2Cl)n[nH]c1=O [MGL3196, reference compound] | 11200

Same assay, conditions: male, cynomolgus monkey; PO, 5 mg/kg, single dose, plasma; read-out: Area under the curve AUC(0-t) in the case of administration

SMILES | AUC(0-t) [ng·h/mL]
CC(C)c1cc(Oc2c(Cl)cc(-n3nc(C#N)c(=O)[nH]c3=O)cc2Cl)n[nH]c1=O [MGL3196, reference compound] | 1650

Same assay, conditions: male, cynomolgus monkey; PO, 5 mg/kg, single dose, plasma; read-out: Peak concentration Cmax

SMILES | Cmax [ng/mL]
CC(C)c1cc(Oc2c(Cl)cc(-n3nc(C#N)c(=O)[nH]c3=O)cc2Cl)n[nH]c1=O [MGL3196, reference compound] | 430
